# Reference: patent US20210070748A1, “INHIBITORS OF BRUTONS TYROSINE KINASE” (Pharmacyclics LLC, priority 2015, published 2021)
# Like-named read-outs stand apart in the source and are kept apart here.
# Key:
# Assay type in all cases: biochemical
# [1] = molecular target: T1, JAK3 (Homo sapiens, UniProt P52333); experiment: Inhibition of a panel of kinases, in vitro HotSpot kinase assay: JAK3; details: Table 10, Formula A-I; 1 μM ATP; read-out: JAK3 (IC50)
# T1 sequence (P52333 1-1124): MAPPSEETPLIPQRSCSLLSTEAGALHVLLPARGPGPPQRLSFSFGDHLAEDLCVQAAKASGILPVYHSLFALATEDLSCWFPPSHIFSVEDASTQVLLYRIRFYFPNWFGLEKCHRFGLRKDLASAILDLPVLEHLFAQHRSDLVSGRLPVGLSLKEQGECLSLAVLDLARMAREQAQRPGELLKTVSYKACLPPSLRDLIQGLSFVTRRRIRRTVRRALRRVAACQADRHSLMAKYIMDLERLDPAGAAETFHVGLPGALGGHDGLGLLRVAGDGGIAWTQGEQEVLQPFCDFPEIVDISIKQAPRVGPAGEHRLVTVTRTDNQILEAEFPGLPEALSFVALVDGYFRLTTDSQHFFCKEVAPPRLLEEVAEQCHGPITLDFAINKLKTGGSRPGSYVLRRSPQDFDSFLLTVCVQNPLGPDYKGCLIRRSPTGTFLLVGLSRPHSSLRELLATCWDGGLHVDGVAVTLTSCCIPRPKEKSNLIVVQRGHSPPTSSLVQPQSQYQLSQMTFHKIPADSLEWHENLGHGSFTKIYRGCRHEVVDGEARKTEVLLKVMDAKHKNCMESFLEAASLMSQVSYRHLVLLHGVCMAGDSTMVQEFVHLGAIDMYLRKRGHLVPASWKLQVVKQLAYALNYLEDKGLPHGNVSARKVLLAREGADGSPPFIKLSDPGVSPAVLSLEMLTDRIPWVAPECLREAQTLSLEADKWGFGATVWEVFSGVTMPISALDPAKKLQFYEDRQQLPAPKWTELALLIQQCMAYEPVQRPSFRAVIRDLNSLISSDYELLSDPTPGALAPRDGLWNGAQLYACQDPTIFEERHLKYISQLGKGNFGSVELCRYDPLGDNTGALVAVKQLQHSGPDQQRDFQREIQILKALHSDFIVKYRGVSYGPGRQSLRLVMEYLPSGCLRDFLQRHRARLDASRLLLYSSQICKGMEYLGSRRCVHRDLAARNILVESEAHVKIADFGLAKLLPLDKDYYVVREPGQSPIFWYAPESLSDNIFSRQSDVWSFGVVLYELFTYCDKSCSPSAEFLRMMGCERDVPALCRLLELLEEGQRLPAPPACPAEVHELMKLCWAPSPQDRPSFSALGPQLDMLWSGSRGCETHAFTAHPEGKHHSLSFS
# [2] = molecular target: T2, BTK-WT (Homo sapiens, UniProt Q06187); experiment: Btk in vitro inhibitory activity (one of Method A TR-FRET, Method B electrophoretic mobility shift, Method C radiometric filter binding)
# T2 construct: purified from insect cells as a full-length construct containing an N-terminal 6X-His tag; His6 (N); made in house; host or cells: insect cells (baculovirus Sf21 in Method B)
# [3] = molecular target: T3, ITK (Homo sapiens, UniProt Q08881); experiment: Inhibition of a panel of kinases, in vitro HotSpot kinase assay: ITK; details: E compounds, Table 17
# T3 sequence (Q08881 1-620): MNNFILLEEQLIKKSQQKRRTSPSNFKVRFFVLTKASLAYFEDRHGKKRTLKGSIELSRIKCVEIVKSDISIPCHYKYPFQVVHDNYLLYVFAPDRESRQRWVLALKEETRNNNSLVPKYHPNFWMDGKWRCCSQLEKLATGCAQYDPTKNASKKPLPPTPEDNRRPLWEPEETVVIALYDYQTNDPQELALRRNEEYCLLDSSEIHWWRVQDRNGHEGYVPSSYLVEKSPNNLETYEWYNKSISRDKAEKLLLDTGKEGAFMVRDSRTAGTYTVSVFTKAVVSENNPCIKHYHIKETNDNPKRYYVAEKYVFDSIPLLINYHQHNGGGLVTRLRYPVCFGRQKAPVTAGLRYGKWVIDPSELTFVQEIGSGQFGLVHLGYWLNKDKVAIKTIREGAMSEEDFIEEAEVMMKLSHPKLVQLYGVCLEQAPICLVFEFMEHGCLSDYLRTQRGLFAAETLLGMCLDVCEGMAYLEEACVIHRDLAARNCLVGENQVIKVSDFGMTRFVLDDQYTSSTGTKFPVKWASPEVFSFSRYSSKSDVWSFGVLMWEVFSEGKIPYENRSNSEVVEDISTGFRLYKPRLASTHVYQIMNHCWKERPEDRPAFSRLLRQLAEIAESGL
# Experimental: The degree of inhibition of a panel of kinases is determined using the in vitro HotSpot kinase assay (purified enzymes, ^33P-ATP, an appropriate substrate and 1 μM ATP).
# [4] = E compounds, Table 17, read-out: IC50 BTK-WT
# T2 sequence (Q06187 whole entry): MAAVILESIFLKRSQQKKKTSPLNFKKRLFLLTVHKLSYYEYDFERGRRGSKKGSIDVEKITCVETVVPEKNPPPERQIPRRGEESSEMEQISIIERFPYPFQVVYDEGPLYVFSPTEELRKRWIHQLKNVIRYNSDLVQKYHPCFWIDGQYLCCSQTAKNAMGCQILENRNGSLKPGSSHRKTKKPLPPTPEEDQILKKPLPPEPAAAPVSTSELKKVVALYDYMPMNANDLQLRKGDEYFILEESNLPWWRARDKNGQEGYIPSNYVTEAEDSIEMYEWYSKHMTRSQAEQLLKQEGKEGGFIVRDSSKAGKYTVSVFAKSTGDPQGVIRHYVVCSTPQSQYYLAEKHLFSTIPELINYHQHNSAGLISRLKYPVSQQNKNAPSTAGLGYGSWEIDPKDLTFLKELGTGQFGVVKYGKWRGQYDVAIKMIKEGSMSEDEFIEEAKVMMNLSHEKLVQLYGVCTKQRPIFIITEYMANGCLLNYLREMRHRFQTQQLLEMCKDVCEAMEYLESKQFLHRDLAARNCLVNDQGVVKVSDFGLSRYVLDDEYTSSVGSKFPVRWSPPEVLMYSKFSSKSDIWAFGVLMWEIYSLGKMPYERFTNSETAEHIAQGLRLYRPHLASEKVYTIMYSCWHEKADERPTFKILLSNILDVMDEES
SMILES,IC50 [1],"IC50 ([2]; Table 10, Formula A-I, read-out: BTK-WT (IC50))",IC50 [3],"IC50 [2, 4]"
"Cc1cc(Nc2nc(N3CCC[C@H](NC(=O)c4ccc(N(C)C)cc4)[C@@H]3CO)cnc2C(N)=O)sn1 (stereo in doubt) [Example A-67, 5-[(2R,3S)-3-[4-(dimethylamino)benzamido]-2-(hydroxymethyl)piperidin-1-yl]-3-[(3-methyl-1,2-thiazol-5-yl)amino]pyrazine-2-carboxamide]",100 to 1000 nM,≤ 100 nM,,
"C=CC(=O)N[C@@H]1CCCC[C@@H]1Nc1nnc(C(N)=O)c(Nc2ccc(C(C)C)cc2)n1 [Example E-34, 3-((1S,2R)-2-acrylamidocyclohexyl-amino)-5-(4-isopropylphenylamino)-1,2,4-triazine-6-carboxamide]",,,100 to 1000 nM,10 to 100 nM
"CCC(=O)N1CCC[C@@H](Nc2nnc(C(N)=O)c(Nc3ccc(C(C)(C)C)cc3)n2)C1 [Example E-35, (R)-5-(4-tert-butylphenylamino)-3-(1-propionylpiperidin-3-ylamino)-1,2,4-triazine-6-carboxamide]",,,100 to 1000 nM,≤ 10 nM
"C=CC(=O)N1CCC[C@@H](N(C(=O)C=C)c2nnc(C(N)=O)c(Nc3ccc(C4CC4)cc3)n2)C1 [Example E-37, (R)-3-(N-(1-acryloylpiperidin-3-yl)acrylamido)-5-(4-cyclopropylphenyl-amino)-1,2,4-triazine-6-carboxamide]",,,1000 to 10000 nM,≤ 10 nM
"C=CC(=O)N1CCC[C@@H](N(C(=O)C=C)c2nnc(C(N)=O)c(Nc3ccc(C4(C#N)CC4)cc3)n2)C1 [Example E-39, (R)-3-(N-(1-acryloylpiperidin-3-yl)acrylamido)-5-(4-(1-cyanocyclopropyl)phenylamino)-1,2,4-triazine-6-carboxamide]",,,100 to 1000 nM,≤ 10 nM
"C=CC(=O)N[C@@H]1CCC[C@@H](Nc2nnc(C(N)=O)c(Nc3ccc(C(C)C)cc3)n2)C1 [Example E-58, 3-((1R,3R)-3-acrylamidocyclohexyl-amino)-5-(4-isopropylphenylamino)-1,2,4-triazine-6-carboxamide]",,,100 to 1000 nM,≤ 10 nM
"C=CC(=O)N[C@H]1CCC[C@@H](Nc2nnc(C(N)=O)c(Nc3ccc(C(C)C)cc3)n2)C1 [Example E-59, 3-((1R,3S)-3-acrylamidocyclohexyl-amino)-5-(4-isopropylphenylamino)-1,2,4-triazine-6-carboxamide]",,,100 to 1000 nM,≤ 10 nM
"C=CC(=O)N1CCC[C@@H](Nc2nnc(C(N)=O)c(Nc3ccc(-c4cnn(C(=O)C=C)c4)cc3)n2)C1 [Example E-60, (R)-5-(4-(1-acryloyl-1H-pyrazol-4-yl)phenylamino)-3-(1-acryloylpiperidin-3-ylamino)-1,2,4-triazine-6-carboxamide]",,,10 to 100 nM,≤ 10 nM
"C=CC(=O)N1CCC[C@@H](Nc2nnc(C(N)=O)c(Nc3cccc(-c4nccs4)c3)n2)C1 [Example E-70, (R)-3-(1-acryloylpiperidin-3-ylamino)-5-(3-(thiazol-2-yl)phenylamino)-1,2,4-triazine-6-carboxamide]",,,10 to 100 nM,≤ 10 nM
"CN1C(=O)CCc2cc(Nc3nc(N[C@@H]4CCCN(C(=O)OC(C)(C)C)C4)nnc3C(N)=O)ccc21 [Example E-72, (R)-tert-butyl 3-(6-carbamoyl-5-(1-methyl-2-oxo-1,2,3,4-tetrahydroquinolin-6-ylamino)-1,2,4-triazin-3-ylamino)piperidine-1-carboxylate]",,,1000 to 10000 nM,10 to 100 nM
"C=CC(=O)N1CCC[C@H](Nc2cnc(C(N)=O)c(Nc3ccc(-c4ncccn4)cc3)n2)C1 [Example E-94, (S)-5-(1-acryloylpiperidin-3-ylamino)-3-(4-(pyrimidin-2-yl)phenylamino)pyrazine-2-carboxamide]",,,100 to 1000 nM,≤ 10 nM
"C=CC(=O)N1CCC[C@H](Nc2cnc(C(N)=O)c(Nc3ccc(C(C)C)cc3)n2)C1 [Example E-101, (S)-5-(1-acryloylpiperidin-3-ylamino)-3-(4-isopropylphenylamino) pyrazine-2-carboxamide]",,,100 to 1000 nM,≤ 10 nM

# Second part, the molecule after the results:
IC50 [1],"IC50 ([2]; Table 10, Formula A-I, read-out: BTK-WT (IC50))",IC50 [3],"IC50 [2, 4]",SMILES
,,≤ 10 nM,≤ 10 nM,"C=CC(=O)N1CCC(C)(c2ccc(Nc3nc(N[C@@H]4CCCN(C(=O)C=C)C4)nnc3C(N)=O)cc2)CC1 [Example E-32, (R)-5-(4-(1-acryloyl-4-methylpiperidin-4-yl)phenylamino)-3-(1-acryloylpiperidin-3-ylamino)-1,2,4-triazine-6-carboxamide]"
,,10 to 100 nM,≤ 10 nM,"C=CC(=O)N1CCC[C@@H](Nc2nnc(C(N)=O)c(Nc3ccc(C4CC4)cc3)n2)C1 [Example E-36, (R)-3-(1-acryloylpiperidin-3-ylamino)-5-(4-cyclopropylphenyl-amino)-1,2,4-triazine-6-carboxamide]"
,,≤ 10 nM,≤ 10 nM,"C=CC(=O)N1CCC[C@@H](Nc2nnc(C(N)=O)c(Nc3ccc(C4(C#N)CC4)cc3)n2)C1 [Example E-38, (R)-3-(1-acryloylpiperidin-3-ylamino)-5-(4-(1-cyanocyclopropyl)phenylamino)-1,2,4-triazine-6-carboxamide]"
,,10 to 100 nM,≤ 10 nM,"C=CC(=O)N1CCC[C@@H](Nc2nnc(C(N)=O)c(Nc3cccc(C)c3)n2)C1 [Example E-44, (R)-3-(1-acryloylpiperidin-3-ylamino)-5-(m-tolylamino)-1,2,4-triazine-6-carboxamide]"
,,≤ 10 nM,≤ 10 nM,"C=CC(=O)N1CCC[C@@H](Nc2nnc(C(N)=O)c(Nc3ccc(CN[C@@H](C)C(C)(C)C)cc3)n2)C1 [Example E-57, 3-((R)-1-acryloylpiperidin-3-ylamino)-5-(4-(((S)-3,3-dimethylbutan-2-ylamino)methyl)phenyl-amino)-1,2,4-triazine-6-carboxamide]"
,,≤ 10 nM,≤ 10 nM,"C=CC(=O)N1CCC[C@@H](Nc2nnc(C(N)=O)c(Nc3ccc4c(c3)CCC(=O)N4C)n2)C1 [Example E-71, (R)-3-(1-acryloylpiperidin-3-ylamino)-5-(1-methyl-2-oxo-1,2,3,4-tetrahydroquinolin-6-ylamino)-1,2,4-triazine-6-carboxamide]"
,,≤ 10 nM,≤ 10 nM,"CN(c1cnc(C(N)=O)c(Nc2ccc(C3(C)CCN(C4CC4)CC3)cc2)n1)[C@@H]1CCN(C(=O)C(F)(F)F)C1 [Example E-105, (R)-3-(4-(1-cyclopropyl-4-methylpiperidin-4-yl)phenylamino)-5-(methyl(1-(2,2,2-trifluoroacetyl)pyrrolidin-3-yl)amino)pyrazine-2-carboxamide]"
,,≤ 10 nM,≤ 10 nM,"CN(c1cnc(C(N)=O)c(Nc2ccc(C3(C)CCN(C4CCCC4)CC3)cc2)n1)[C@@H]1CCN(C(=O)C(F)(F)F)C1 [Example E-107, (R)-3-(4-(1-cyclopentyl-4-methylpiperidin-4-yl)phenylamino)-5-(methyl(1-(2,2,2-trifluoroacetyl)pyrrolidin-3-yl)amino)pyrazine-2-carboxamide]"
